Assay results: patent US12012404B2, “Pyrimidoheterocyclic compounds and application thereof” (D3 BIO (WUXI) CO., LTD., priority 2020, dated 2024)
Where two headings read alike, the source gives them in different places.

Columns and labels:
[1] = In vitro stability in liver microsomes, CD-1 mice; assay type: in vitro ADME; details: CD-1 mice liver microsomes, 0.5 mg/mL
Description: (§1) Purpose of the assay: Metabolic stabilities of the assay compounds in liver microsomes of CD-1 mice, SD rats, beagle dogs, cynomolgus monkeys, and human were assayed, respectively.
(§2) Procedure of the assay: Two 96-well incubation plates were prepared and named T60 incubation plate and NCF60 incubation plate, respectively. 445 μL of microsomal working solutions (liver microsomal protein concentration of 0.56 mg/mL) were added to the T60 incubation plate and the NCF60 incubation plate, respectively, and then the above incubation plates were pre-incubated in a 37° C. water bath for about 10 minutes.
(§3) After the pre-incubation, 5 μL of working solutions of the assay sample or the control compound were added to the T60 incubation plate and the NCF60 incubation plate, respectively, and the mixture was mixed well. 50 μL of potassium phosphate buffer was added to each well of the NCF60 incubation plate to initiate the reaction. 180 μL of stop solution (200 ng/mL tolbutamide and 200 ng/mL labetalol in acetonitrile) and 6 uL of NADPH regeneration system working solution were added to the T0 stop plate, and 54 μL of sample was transferred from T60 incubation plate to T0 stop plate (generation of TO sample). The reaction was initiated by adding 44 μL of NADPH regeneration system working solution to each well of the T60 incubation plate. Only 54 μL of microsome working solution, 6 uL of NADPH regeneration system working solution and 180 μL of stop solution were added to the Blank plate. Therefore, in samples of the assay compound or the control compound, the final reaction concentration of compound, testosterone, diclofenac and propafenone was 1 μM, the concentration of liver microsomes was 0.5 mg/mL, and the final reaction concentrations of DMSO and acetonitrile in the reaction system were 0.01% (v/v) and 0.99% (v/v), respectively.
(§4) After an appropriate time (e.g., 5, 15, 30, 45 and 60 minutes) of incubation, 180 μL of stop solutions (200 ng/mL tolbutamide and 200 ng/mL labetalol in acetonitrile) were added to the sample wells of each stop plate, respectively. 60 μL of sample was removed from the T60 incubation plate to stop the reaction. All sample plates were shaken well and then centrifuged at 3220×g for 20 minutes. Then 80 μL of supernatant was taken out from each well, and diluted in 240 μL of pure water for liquid chromatography-tandem mass spectrometry analysis. All samples were injected and analyzed by liquid chromatography-tandem mass spectrometry.

[2] = In vitro stability in liver microsomes, SD rats; assay type: in vitro ADME; details: 0.5 mg/mL
Description: as §1, §2, §3, §4

[3] = In vitro stability in liver microsomes, beagle dogs; assay type: in vitro ADME; details: 0.5 mg/mL
Description: as §1, §2, §3, §4

[4] = Pharmacokinetics by oral administration and intravenous injection in CD mice; assay type: in vivo; details: for AUCu: AUC0-last × PPB(Unbound %); for Peak concentration, Cmax, u: Cmax × PPB(Unbound %); for Cmax: read-out: Peak concentration, Cmax; for Vd: CD, iv, 2.39 mg/kg
Description: 2) Assay on the Pharmacokinetics of the Assay Compounds by Oral Administration and Intravenous Injection in CD Mice
The assay compound was mixed with 5% dimethyl sulfoxide/95% (10% hydroxypropyl-β-cyclodextrin) solution. The mixture was vortexed and sonicated to prepare a 1 mg/mL clear solution, which was filtered through a microporous membrane for later use. Male CD mice aged 7 to 10 weeks were selected, and administered candidate compound solutions intravenously or orally. Whole blood was collected for a certain period of time, and prepared to obtain plasma. Drug concentration was analyzed by LC-MS/MS method, and pharmacokinetic parameters were calculated by Phoenix WinNonlin software (Pharsight, USA).

[5] = system: human pancreatic cancer Mia PaCa-2 cells; test: Pharmacodynamics in vivo in subcutaneously transplanted tumor model of Mia PaCa-2 cells; design: species or system Balb/c Nude mice; details: day 22 of administration
Description: Assay on pharmacodynamics in vivo in a subcutaneously transplanted tumor model of human pancreatic cancer Mia PaCa-2 cells in Balb/c Nude mice
Cell culture: Human pancreatic cancer Mia PaCa-2 cells (ATCC-CRL-1420) were cultured in monolayer in vitro in DMEM medium with 10% fetal calf serum and 2.5% horse serum in a 37° C., 5% carbon dioxide incubator. Cells were passaged by routine digestion with trypsin-EDTA twice a week. When the cell saturation reached 80%-90% and the cell number met the requirement, the cells were harvested, counted, and resuspended in an appropriate amount of PBS. Matrigel was added in a ratio of 1:1 to obtain a cell suspension with a cell density of 25×10^6 cells/mL.
Cell inoculation: 0.2 mL (5×10^6 cells/mouse) of Mia PaCa-2 cells (plus Matrigel, 1:1 by volume) were subcutaneously inoculated into the right back of each mouse. When the average tumor volume reached 190 mm^3, mice were randomized into groups based on tumor volume and administration was initiated according to the protocol in Table 10.
Tumor diameter was measured with vernier caliper twice a week. The calculation formula of tumor volume was: V=0.5a×b^2, where a and b represent the long and short diameters of the tumor, respectively.
The anti-tumor efficacy of compounds was evaluated by TGI (%) or relative tumor proliferation rate T/C (%). Relative tumor proliferation rate T/C (%)=TRTV/CRTV×100% (TRTV: RTV in a treatment group; CRTV: RTV in a negative control group). The relative tumor volume (RTV) was calculated according to results of tumor measurement, and the calculation formula was RTV=Vt/VO, where VO was average tumor volume measured at the time of administration by group (i.e., DO), and Vt was average tumor volume at the time of a certain measurement. For TRTV and CRTV, data on the same day were used.
TGI (%) reflected tumor growth inhibition rate. TGI (%)=[(1−(average tumor volume at the end of administration of a treatment group−average tumor volume at the beginning of administration of the treatment group))/(average tumor volume at the end of treatment of a vehicle control group−average tumor volume at the beginning of treatment of the vehicle control group)]×100%.

[6] = intravenous injection, 2.39 mg/kg (17), 2.0 mg/kg (8B)
[7] = oral, 14.7 mg/kg (17), 10.3 mg/kg (8B)
[8] = male, mouse, plasma, oral, 14.7 mg/kg (17), 10.3 mg/kg (8B)

Question: For `C=C(F)C(=O)N1CCN(c2nc(OCC3CCCN3C)nc3c2COC(c2c(F)c(N)cc(C)c2C(F)(F)F)C3)CC1CC#N.Cl` (single isomer, unassigned) [Compound 8B hydrochloride], which “CLint(liver)” value ([1]; 1 μM) is on record?
Answer: 436.1 mL/min/kg

Question: What about the CLint(mic) ([1]; 1 μM) of the same compound?
Answer: 110 µL/min/mg

Question: What about the T1/2 ([1]; 1 μM) of the same compound?
Answer: 12.6 min

Question: What about the “CLint(liver)” value ([2]; 1 μM) of the same compound?
Answer: <17.3 mL/min/kg

Question: And the CLint(mic) ([2]; 1 μM)?
Answer: < 9.6 µL/min/mg

Question: What about the T1/2 ([2]; 1 μM) of the same compound?
Answer: >145 min

Question: What about the “CLint(liver)” value ([3]; 1 μM) of the same compound?
Answer: <13.8 mL/min/kg

Question: What about the CLint(mic) ([3]; 1 μM) of the same compound?
Answer: < 9.6 µL/min/mg

Question: What about the T1/2 ([3]; 1 μM) of the same compound?
Answer: >145 min

Question: What about the AUC0-last [4, 6] of the same compound?
Answer: 1.297 µM·h

Question: What about the “Apparent volume of distribution, Vdss” value [4, 6] of the same compound?
Answer: 3.9 L/kg

Question: What about the “Clearance rate, CL” value [4, 6] of the same compound?
Answer: 40.6 mL/min/kg

Question: What about the “Half-life period, T1/2” value [4, 6] of the same compound?
Answer: 102 min

Question: And the AUCu [4, 6]?
Answer: 0.1556 µM·h

Question: And the “Apparent volume of distribution, Vdss, u” value ([4]; intravenous injection, 2.39 mg/kg (17), 2.0 mg/kg (8B), Vdss/PPB(Unbound %))?
Answer: 32.3 L/kg

Question: And the AUC0-last [4, 7]?
Answer: 1.422 µM·h

Question: What about the “Bioavailability F” value [4, 7] of the same compound?
Answer: 21.9%

Question: What about the “Time-to-peak, Tmax” value [4, 7] of the same compound?
Answer: 60 min

Question: And the AUCu [4, 7]?
Answer: 0.1706 µM·h

Question: And the “Peak concentration, Cmax, u” value [4, 7]?
Answer: 51.7 nM

Question: And the Cmax [4, 7]?
Answer: 431 nM

Question: And the Average tumor volume ([5]; 10 mg/kg PO QD)?
Answer: 745.84 mm^3

Question: And the T/C ([5]; 10 mg/kg PO QD)?
Answer: 36.99%

Question: And the TGI ([5]; 10 mg/kg PO QD)?
Answer: 66.89%

Question: And the Average tumor volume ([5]; 30 mg/kg PO QD)?
Answer: 227.15 mm^3

Question: What about the T/C ([5]; 30 mg/kg PO QD) of the same compound?
Answer: 11.28%

Question: What about the TGI ([5]; 30 mg/kg PO QD) of the same compound?
Answer: 94.23%

Question: What does the source list for `C=C(F)C(=O)N1CCN(c2nc(OC[C@@]34CCCN3C[C@H](F)C4)nc3c2COC(c2c(F)c(N)cc(C)c2C(F)(F)F)C3)C[C@@H]1CC#N` (stereo partly drawn) [Compound 17]?
Answer: CLint(mic) ([1]; 1 μM): 285 µL/min/mg; CLint scaled at 1 μM ([1]; mouse): 1130 mL/min/kg; half-life at 1 μM ([1]; mouse): 4.9 min; CLint(mic) ([2]; 1 μM): 60.2 µL/min/mg; CLint scaled at 1 μM ([2]; rat): 108 mL/min/kg; half-life at 1 μM ([2]; rat): 23 min; CLint(mic) ([3]; 1 μM): < 9.6 µL/min/mg; CLint scaled at 1 μM ([3]; dog): < 13.8 mL/min/kg; half-life at 1 μM ([3]; dog): > 145 min; AUCu [4, 6]: 0.0202 µM·h; Vd ([4]; male, mouse, plasma, intravenous injection, 2.39 mg/kg (17), 2.0 mg/kg (8B), Vdss/PPB(Unbound %), read-out: Apparent volume of distribution, Vdss, u): 169 L/kg; Vd ([4]; male, mouse, plasma, intravenous injection, 2.39 mg/kg (17), 2.0 mg/kg (8B), read-out: Apparent volume of distribution, Vdss): 2.6 L/kg; AUC(0-t) ([4]; male, mouse, plasma, intravenous injection, 2.39 mg/kg (17), 2.0 mg/kg (8B)): 1.31 µM·h; clearance ([4]; male, mouse, plasma, intravenous injection, 2.39 mg/kg (17), 2.0 mg/kg (8B), read-out: Clearance rate, CL): 37.3 mL/min/kg; half-life ([4]; male, mouse, plasma, intravenous injection, 2.39 mg/kg (17), 2.0 mg/kg (8B), read-out: Half-life period, T1/2 (converted)): 60 min; AUC(0-t) [4, 8]: 2.4 µM·h; bioavailability ([4]; male, mouse, plasma, oral, 14.7 mg/kg (17), 10.3 mg/kg (8B), read-out: Bioavailability F): 24.4%; Cmax [4, 8]: 1460 nM; Tmax ([4]; male, mouse, plasma, oral, 14.7 mg/kg (17), 10.3 mg/kg (8B), read-out: Time-to-peak, Tmax): 15 min; AUCu [4, 7]: 0.037 µM·h; Peak concentration, Cmax, u [4, 7]: 22.5 nM; Average tumor volume ([5]; 10 mg/kg PO QD): 249.87 mm^3; T/C ([5]; 10 mg/kg PO QD): 12.39%; TGI ([5]; 10 mg/kg PO QD): 93.06%; Average tumor volume ([5]; 30 mg/kg PO QD): 124.14 mm^3; T/C ([5]; 30 mg/kg PO QD): 6.16%; TGI ([5]; 30 mg/kg PO QD): 99.64%
